# Source: ChEMBL document CHEMBL1132272, “Prediction of ligand-receptor binding thermodynamics by free energy force field three-dimensional quantitative structure-activity relationship analysis: applications to a set of glucose analogue inhibitors of glycogen phosphorylase” (J Med Chem, 1999)
# pKi: −log10 of the molar value.
# Experiment: The compound was evaluated for the inhibition of glycogen phosphorylase
row,Compound,pKi
1,CCCC(=O)N[C@H]1O[C@H](CO)[C@@H](O)[C@H](O)[C@H]1O,4.03
2,O=C(CBr)N[C@H]1O[C@@H](CO)[C@@H](O)[C@H](O)[C@@H]1O,4.36
3,OCC1OC(S)C(O)C(O)C1O (stereo unspecified),3.00
4,OCC1OC(CO)C(O)C(O)C1O (stereo unspecified),2.82
5,CNC(=O)C1OC(CO)C(O)C(O)C1O (stereo in doubt; 8),3.80
6,O=C(CCl)N[C@H]1O[C@H](CO)[C@@H](O)[C@H](O)[C@H]1O,4.35
7,NNC(=O)[C@@H]1O[C@H](CO)[C@@H](O)[C@H](O)[C@H]1O,3.01
8,NC(=O)C1OC(CO)C(O)C(O)C1O (stereo in doubt; 11),3.36
9,OC[C@H]1O[C@](O)(CO)[C@@H](O)[C@H](O)[C@H]1O,1.80
10,NCC(=O)N[C@H]1O[C@@H](CO)[C@@H](O)[C@H](O)[C@@H]1O,3.43
11,NC(=O)C1OC(CO)C(O)C(O)C1O (stereo in doubt; 10),3.43
12,CCC(=O)N[C@H]1O[C@H](CO)[C@@H](O)[C@H](O)[C@H]1O,4.41
13,CNC(=O)C1OC(CO)C(O)C(O)C1O (stereo in doubt; 22),1.44
14,N#CC[C@@H]1O[C@H](CO)[C@@H](O)[C@H](O)[C@H]1O,2.05
15,NCC1OC(CO)C(O)C(O)C1O (stereo unspecified),1.46
16,O=C(Nc1ccccc1)C1OC(CO)C(O)C(O)C1O (stereo unspecified),2.27
17,CC(=O)N[C@H]1O[C@H](CO)[C@@H](O)[C@H](O)[C@H]1O,4.49
18,O=C(N[C@H]1O[C@H](CO)[C@@H](O)[C@H](O)[C@H]1O)c1ccccc1,4.09
19,NC(=O)N[C@H]1O[C@H](CO)[C@@H](O)[C@H](O)[C@H]1O,3.85
20,CO[C@@H]1O[C@H](CO)[C@H](O)[C@H](O)[C@H]1O,1.61
21,CC1OC(CO)C(O)C(O)C1O (stereo unspecified),1.27
